From patent US20230097866A1, “BACTERIAL TOPOISOMERASE INHIBITORS DERIVED FROM ISOMANNIDE” (Ohio State Innovation Foundation, priority 2020, published 2023) come the findings set out here.

Values after ≈ are worked out from the molar mass of the structure shown.

A word on the MIC: it is the lowest concentration that inhibits growth of the organism. The term inhibition denotes the relative decrease from the control value, in per cent. The kinetic solubility is the concentration staying in solution when a stock, usually in DMSO, is diluted into the medium.

In one series the test system is S. aureus ATCC 29213. In words: MIC panel (Laboratory Specialists, Inc.), S. aureus ATCC 29213. The note with it: Staphylococcus aureus, ATCC29213, read-out: MIC S. aureus ATCC 29213 (n = 3); Cmpd. 6; CLSI broth microdilution; very small pinpoint growth up to 4 μg/mL. Format: cell-based. (In general: In broth dilution the organism is exposed to a series of concentrations in liquid medium.)

Series [1] relates to Enterococcus faecium DRL-4193. In words: MIC panel (Laboratory Specialists, Inc.), E. faecium DRL-4193. Format: cell-based. The note with it: DRL4193, Cmpd. 6, vancomycin-susceptible strain.
The test system of series [2] is Enterococcus faecalis ATCC 29212. As to the kind of experiment: MIC panel (Laboratory Specialists, Inc.), E. faecalis. Type of series: cell-based. The note with it: ATCC29212, Cmpd. 6, CLSI broth microdilution.
The subject of series [3] is Klebsiella pneumoniae LSI-2999. In words: MIC panel (Laboratory Specialists, Inc.), K. pneumoniae. Type of series: cell-based. The conditions noted are these: LSI2999, Cmpd. 6, CLSI broth microdilution.
A further series deals with T1, hKCNQ1/hminK (Homo sapiens, UniProt P51787).
T1 construct: expressed in transfected cells
As to the kind of experiment: KCNQ1/hminK QPatch CiPA assay. The note with it: mean, duplicate, read-out: % Inhibition KCNQ1 (peak current). Format: cell-based. The source says:
(§1) Early drug discovery programs commonly assess hERG inhibition as the only indicator of potential cardiovascular safety concerns. Researchers have recently recommended a more rigorous evaluation of multiple cardiac ion channels to provide a more comprehensive cardiovascular risk assessment (Fermini, B., et al., A New Perspective in the Field of Cardiac Safety Testing through the Comprehensive In Vitro Proarrhythmia Assay Paradigm. J. Biomolec. Screening 2016, 21, 1-11). Given the promising initial results for 6, further evaluation was undertaken (in duplicate) in a Comprehensive in vitro Proarrhythmia Assay (CiPA) eight assay panel run on the QPatch HT (Sophion, Denmark) automated patch clamp system at three concentrations (3, 30, and 100 μM). All data were filtered for seal quality, seal drop, and current amplitude. A stock solution of the test compound at 30 mM concentration was prepared in DMSO.
The parameters measured were the maximum outward current evoked on stepping to 60 mV from the test pulse. The peak current amplitude was calculated before and after compound addition and the amount of block was assessed by dividing the Test compound current amplitude by the Control current amplitude. Control is the mean hKCNQ1/hminK current amplitude collected 15 seconds at the end of the control; Test Compound is the mean hKCNQ1/hminK current amplitude collected in the presence of test compound at each concentration. The positive control was chromanol 293B.

The target of series [4] is T2, Nav1.5 Late Current Human Ion Channel (Homo sapiens, UniProt Q14524).
T2 construct: expressed in transfected cells
T2 sequence (Q14524 whole entry): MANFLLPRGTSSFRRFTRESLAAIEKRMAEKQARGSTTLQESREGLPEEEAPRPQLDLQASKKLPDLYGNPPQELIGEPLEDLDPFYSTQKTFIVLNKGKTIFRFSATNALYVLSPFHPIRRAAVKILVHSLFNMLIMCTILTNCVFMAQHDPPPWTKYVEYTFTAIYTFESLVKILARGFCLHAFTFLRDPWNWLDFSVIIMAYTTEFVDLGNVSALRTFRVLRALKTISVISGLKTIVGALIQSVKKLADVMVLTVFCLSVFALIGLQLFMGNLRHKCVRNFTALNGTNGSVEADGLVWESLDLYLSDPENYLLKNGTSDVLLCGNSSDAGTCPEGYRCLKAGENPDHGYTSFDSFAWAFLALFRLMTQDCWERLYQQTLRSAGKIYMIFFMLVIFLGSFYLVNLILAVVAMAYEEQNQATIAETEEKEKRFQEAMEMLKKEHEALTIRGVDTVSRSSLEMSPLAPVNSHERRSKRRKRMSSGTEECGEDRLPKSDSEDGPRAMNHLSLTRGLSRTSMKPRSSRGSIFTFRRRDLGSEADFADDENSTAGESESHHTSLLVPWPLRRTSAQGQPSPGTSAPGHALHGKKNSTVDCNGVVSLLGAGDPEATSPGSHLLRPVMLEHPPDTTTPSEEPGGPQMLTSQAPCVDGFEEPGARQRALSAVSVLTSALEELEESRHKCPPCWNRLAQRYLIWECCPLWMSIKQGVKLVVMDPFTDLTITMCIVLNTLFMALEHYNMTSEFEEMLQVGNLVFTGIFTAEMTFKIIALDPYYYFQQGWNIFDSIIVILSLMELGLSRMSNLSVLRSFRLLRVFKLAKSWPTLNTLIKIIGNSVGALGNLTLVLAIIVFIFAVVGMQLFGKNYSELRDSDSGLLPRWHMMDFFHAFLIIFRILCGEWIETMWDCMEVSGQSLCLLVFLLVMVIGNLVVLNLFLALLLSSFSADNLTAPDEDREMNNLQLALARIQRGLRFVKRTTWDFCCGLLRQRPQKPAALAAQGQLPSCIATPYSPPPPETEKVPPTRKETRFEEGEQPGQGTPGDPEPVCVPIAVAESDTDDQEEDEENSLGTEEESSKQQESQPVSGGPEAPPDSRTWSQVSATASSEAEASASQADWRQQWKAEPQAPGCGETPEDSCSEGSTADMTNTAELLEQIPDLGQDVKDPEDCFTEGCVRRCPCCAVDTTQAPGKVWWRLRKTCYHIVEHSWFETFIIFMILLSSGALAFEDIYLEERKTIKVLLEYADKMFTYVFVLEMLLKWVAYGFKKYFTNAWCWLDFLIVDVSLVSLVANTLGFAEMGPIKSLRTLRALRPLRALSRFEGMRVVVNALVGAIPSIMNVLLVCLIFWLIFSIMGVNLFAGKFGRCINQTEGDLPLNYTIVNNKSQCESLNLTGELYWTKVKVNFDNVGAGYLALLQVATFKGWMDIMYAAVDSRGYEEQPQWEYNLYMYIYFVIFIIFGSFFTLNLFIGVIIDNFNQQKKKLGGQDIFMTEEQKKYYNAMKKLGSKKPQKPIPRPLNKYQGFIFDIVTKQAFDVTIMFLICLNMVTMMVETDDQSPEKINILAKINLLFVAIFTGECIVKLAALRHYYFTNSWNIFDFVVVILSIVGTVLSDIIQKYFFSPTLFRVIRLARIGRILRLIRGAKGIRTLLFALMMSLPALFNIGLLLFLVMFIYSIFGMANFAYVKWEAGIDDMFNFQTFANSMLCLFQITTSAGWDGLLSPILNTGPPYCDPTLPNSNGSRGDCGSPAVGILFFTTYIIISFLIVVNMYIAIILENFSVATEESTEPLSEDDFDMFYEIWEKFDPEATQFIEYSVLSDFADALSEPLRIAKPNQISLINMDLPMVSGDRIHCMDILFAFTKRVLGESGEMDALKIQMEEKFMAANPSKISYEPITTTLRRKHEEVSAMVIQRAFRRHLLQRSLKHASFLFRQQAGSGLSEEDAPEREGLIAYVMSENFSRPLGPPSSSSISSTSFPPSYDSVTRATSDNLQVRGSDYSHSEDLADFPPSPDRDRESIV
As to the kind of experiment: Nav1.5 late current agonist QPatch CiPA assay. Type of series: cell-based. The conditions noted are these: normalized to ATXII response.
Source text: as §1
The parameters measured were the degree of activation of inward current (charge) evoked on stepping to −15 mV from the test pulse. The peak and ramp current (charge) amplitude was calculated before and after compound addition and the amount of current (charge) was assessed by dividing the Test compound current (charge) by the Control current (charge). Control is the mean hNav1.5 late current (charge) collected 15 seconds at the end of the control; Test Compound is the mean hNav1.5 current (charge) collected in the presence of test compound at each concentration. Changes in charge were normalized to the maximum response of the EC50 of ATXII (positive control).
In general terms: Patch clamp records ionic current or voltage across a cell membrane.

For series [5], the target named is Norepinephrine transporter (Homo sapiens, UniProt P23975). In words: Off-target safety panel, norepinephrine transporter. Format: binding. The note with it: duplicate, read-out: % Inhibition at 100 μM conc., Norepinephrine transporter. The procedure:
(§2) Potential off-target pharmacology for compound 6 was also evaluated by screening in duplicate against a panel (Bowes, J., et al., Reducing Safety-Related Drug Attrition: The Use of in vitro Pharmacological Profiling. Nat. Rev. Drug Disc. 2012, 11, 909-922) of 44 receptors, enzymes, etc. Of the 44 potential targets, only five were inhibited by >50% at a concentration of 100 μM (Table 7).

The next series concerns the target Dopamine transporter (Homo sapiens, UniProt Q01959). As to the kind of experiment: Off-target safety panel, dopamine transporter. Format: binding. The conditions noted are these: duplicate, read-out: % Inhibition at 100 μM conc., Dopamine transporter. The procedure: as §2
For another series, the system named is HepaRG cells. In words: ATP viability cytotoxicity assay in HepaRG cells. Format: cell-based. The note with it: 24 hours. The procedure:
The cytotoxicity of compound 6 was measured using an ATP viability assay in HepaRG cells, with a five-point concentration-response curve (Table 8).
HepaRG cells were plated in a collagen coated 96-well plate overnight and treated the next day with test compounds and controls for 24 hours. Tamoxifen was used as a positive control compound for cytotoxicity (25 μM). After 24 hours, the plate was equilibrated to room temperature for 30 minutes and Cell Titer-Glo Reagent was added. Luminescence was measured using an EnSpire multimode plate reader. Data were reported as % cytotoxi city compared to vehicle treated control.
Cytotoxicity was determined by calculating the percentage of vehicle control: […]

A short description of another series: physchem. Type of series: physicochemical. The note with it: aqueous buffer, kinetic from dmso stock; buffered aqueous solution (pH 7.4). The method, then:
Test compounds were prepared at 10 mM in 100% DMSO and diluted into aqueous buffer, pH 7.4, to achieve a final test compound concentration of 100 μM with a final DMSO concentration of 1%. Caffeine and tamoxifen were assayed as control compounds. The samples were shaken for 90 minutes at room temperature and then filtered through a 0.4 μm filter plate. Filtrates were collected and analyzed using LC-MS/MS.

A further series concerns the target T3, CYP2C9 (Homo sapiens, UniProt P11712).
T3 construct: incubated with human liver microsomes (mixed gender, pool of 50 donors, 0.1 mg/mL); from tissue; host or cells: human liver microsomes, pool of 50 donors
In words: CYP450 inhibition in human liver microsomes, CYP2C9. Type of series: in vitro ADME. The note with it: 10 μM. The method, then: (§3) CYP450 inhibition assays was conducted using individual enzyme substrates and inhibitors instead of a cocktail to avoid interferences. CYP450 isoforms tested included the following: CYP1A2, CYP2B6, CYP2C8, CYP2C9, CYP2C19, CYP2D6, and CYP3A4. Each test compound was screened at a final concentration of 10 μM. Each test compound was incubated with human liver microsomes (mixed gender, pool of 50 donors, 0.1 mg/mL), CYP450-selective probe substrates, and co-factors (NADPH, MgCl2) in phosphate buffer (pH 7.4) for 10-30 min in a 96-well plate at 37° C. The reactions were stopped by transferring the reaction mixture to acetonitrile/methanol. Samples were mixed and centrifuged, and the supernatants analyzed by LC-MS/MS to quantify percent inhibition relative to vehicle control.
On the technique in general: Liver microsomes are vesicles of endoplasmic reticulum, rich in cytochrome P450 enzymes.

A further series deals with T4, CYP2D6 (Homo sapiens, UniProt P10635).
T4 construct: incubated with human liver microsomes (mixed gender, pool of 50 donors, 0.1 mg/mL); from tissue; host or cells: human liver microsomes, pool of 50 donors
T4 sequence (P10635 whole entry): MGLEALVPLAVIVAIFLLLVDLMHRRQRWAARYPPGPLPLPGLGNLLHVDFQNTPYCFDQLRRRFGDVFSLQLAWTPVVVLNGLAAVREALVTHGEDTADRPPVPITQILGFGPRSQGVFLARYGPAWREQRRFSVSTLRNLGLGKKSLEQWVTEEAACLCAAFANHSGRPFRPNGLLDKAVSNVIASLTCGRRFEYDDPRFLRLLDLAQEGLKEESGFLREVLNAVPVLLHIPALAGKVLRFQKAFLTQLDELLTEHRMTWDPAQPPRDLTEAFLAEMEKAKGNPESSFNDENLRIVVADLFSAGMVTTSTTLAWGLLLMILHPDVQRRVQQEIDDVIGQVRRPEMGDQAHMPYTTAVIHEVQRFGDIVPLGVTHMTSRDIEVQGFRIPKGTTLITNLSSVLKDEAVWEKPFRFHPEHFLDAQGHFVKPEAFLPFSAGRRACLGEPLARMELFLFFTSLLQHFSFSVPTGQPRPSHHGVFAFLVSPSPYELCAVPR
As to the kind of experiment: CYP450 inhibition in human liver microsomes, CYP2D6. The note with it: 10 μM. Format: in vitro ADME. The method, then: as §3

T3 sequence (P11712 whole entry): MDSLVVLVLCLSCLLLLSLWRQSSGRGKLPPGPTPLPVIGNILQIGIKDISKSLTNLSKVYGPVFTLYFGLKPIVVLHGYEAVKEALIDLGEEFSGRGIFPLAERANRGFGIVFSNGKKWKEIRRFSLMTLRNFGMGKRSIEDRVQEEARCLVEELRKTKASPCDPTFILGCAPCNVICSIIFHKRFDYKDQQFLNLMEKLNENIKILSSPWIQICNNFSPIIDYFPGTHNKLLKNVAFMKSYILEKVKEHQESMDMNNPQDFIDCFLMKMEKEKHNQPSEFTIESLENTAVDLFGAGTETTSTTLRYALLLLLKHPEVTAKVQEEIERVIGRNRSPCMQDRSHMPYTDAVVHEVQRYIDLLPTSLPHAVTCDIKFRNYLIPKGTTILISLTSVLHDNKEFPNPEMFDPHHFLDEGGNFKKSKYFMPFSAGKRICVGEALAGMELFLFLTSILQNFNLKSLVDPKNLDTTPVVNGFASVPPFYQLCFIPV
Sequence of Dopamine transporter (Q01959 whole entry): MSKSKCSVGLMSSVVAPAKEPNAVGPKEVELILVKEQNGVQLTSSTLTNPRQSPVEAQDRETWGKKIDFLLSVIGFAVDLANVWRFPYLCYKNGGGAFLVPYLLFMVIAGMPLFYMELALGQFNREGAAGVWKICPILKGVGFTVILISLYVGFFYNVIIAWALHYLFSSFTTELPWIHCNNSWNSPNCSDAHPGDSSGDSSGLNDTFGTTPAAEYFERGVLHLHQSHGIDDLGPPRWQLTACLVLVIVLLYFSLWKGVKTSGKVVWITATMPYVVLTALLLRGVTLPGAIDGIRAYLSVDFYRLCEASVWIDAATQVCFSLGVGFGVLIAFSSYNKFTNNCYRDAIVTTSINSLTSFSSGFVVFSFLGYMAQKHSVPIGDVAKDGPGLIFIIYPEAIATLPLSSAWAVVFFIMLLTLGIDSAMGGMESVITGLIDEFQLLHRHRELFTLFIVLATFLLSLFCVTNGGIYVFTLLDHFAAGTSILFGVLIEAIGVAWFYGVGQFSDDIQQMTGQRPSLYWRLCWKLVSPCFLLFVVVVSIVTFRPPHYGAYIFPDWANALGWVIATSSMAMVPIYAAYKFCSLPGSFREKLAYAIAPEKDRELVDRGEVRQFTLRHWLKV
Sequence of Norepinephrine transporter (P23975 whole entry, species assumed): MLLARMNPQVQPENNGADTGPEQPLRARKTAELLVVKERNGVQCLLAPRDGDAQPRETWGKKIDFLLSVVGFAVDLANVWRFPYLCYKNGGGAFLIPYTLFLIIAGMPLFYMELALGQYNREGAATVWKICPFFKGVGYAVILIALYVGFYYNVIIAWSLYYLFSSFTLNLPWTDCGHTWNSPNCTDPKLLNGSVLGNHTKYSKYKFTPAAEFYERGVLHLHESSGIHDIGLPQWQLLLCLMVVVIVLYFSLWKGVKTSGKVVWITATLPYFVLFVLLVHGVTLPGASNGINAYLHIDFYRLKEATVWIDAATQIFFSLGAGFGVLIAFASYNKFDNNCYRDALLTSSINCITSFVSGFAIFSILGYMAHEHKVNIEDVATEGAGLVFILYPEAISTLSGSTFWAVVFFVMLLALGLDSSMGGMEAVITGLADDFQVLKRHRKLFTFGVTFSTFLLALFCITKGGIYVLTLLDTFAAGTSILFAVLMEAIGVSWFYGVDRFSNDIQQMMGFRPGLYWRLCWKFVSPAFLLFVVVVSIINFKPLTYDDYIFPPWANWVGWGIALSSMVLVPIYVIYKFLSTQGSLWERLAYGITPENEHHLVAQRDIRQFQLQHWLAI

Turning to `COc1ccc2ncc(F)c(CC[C@@]3(O)CO[C@@H]4[C@@H](NCc5cc6c(cn5)OCCO6)CO[C@@H]43)c2n1` [Compound 6, (3R, 3aS,6S,6aR)-6-(((2,3-dihydro-[1,4]dioxino[2,36-c]pyridin-7-yl)methyl)amnino)-3-(2-(3-fluoro-6-methoxy-1,5-naphthyridin-4-yl)ethyl)hexahydrofuro[3,2-b]furan-3-ol], the MIC in the series with S. aureus ATCC 29213 worked out at 0.25 µg/mL (≈ 0.501 µM); in series [1], 2 µg/mL (≈ 4.01 µM); in series [2], 2 µg/mL (≈ 4.01 µM); in series [3], 128 µg/mL (≈ 257 µM). Besides, on hKCNQ1/hminK (3 μM), the inhibition at 3 µM was -2.9%. In addition, at hKCNQ1/hminK (30 μM), the inhibition at 30 µM is 1.5%. Moreover, the inhibition at 100 µM is 22.1% at hKCNQ1/hminK (100 μM), 68% in series [5] and 96% at Dopamine transporter. In addition, the figures for the “Navi1.5 Late (agonist - activation of late current)” value in series [4] (3 μM), in series [4] (30 μM) and in series [4] (100 μM) were 3.4%, 7.7% and 17.0%, respectively. For the same compound, the “% Cytotoxicity” value amounted to 6% with HepaRG cells (0.01 μM), 4% in the series with HepaRG cells (0.1 μM), 9% in the series with HepaRG cells (1 μM) and 8% with HepaRG cells (10 μM). In “physchem”, this compound showed a solubility (kinetic) of 76.2 µM (≈ 38 µg/mL). In addition, the CYP2C9 inhibition result at CYP2C9 is on record as “Less than 50%”. In addition, the CYP2D6 inhibition entry at CYP2D6 is listed as “Less than 50%”.
